Measurements as given in patent US20070166547A1, “Use of a layer consisting of hydrophobic linear, or two-dimensional polycyclic aromatics as a barrier layer or an encapsulation and electric components constructed with a layer of this type and comprising organic polymers” (priority 2003, published 2007).

What was measured:
[1] = tested on: aggregation of thrombocytes; assay: ADP-induced aggregation of thrombocytes after intravenous administration (in vivo); design: species or system rabbit
Method: The experiments were carried out on male rabbits of the “Chinchilla” breed having a mass of 2.7±0.3 kg. 18-24 hours prior to the experiment they were deprived of feed while preserving free access to water.
To obtain plasma enriched with thrombocytes, blood was taken from a cut of a marginal vein of the rabbit ear, the sample was stabilized with 3.8% of sodium citrate solution in a ratio of 9:1 and centrifuged at 200 g (1000 rev/min) for 10 minutes. The top supernatant layer enriched with thrombocytes was transferred by an automatic dropper into a silicone test tube and kept at 37° C. The plasma enriched with thrombocytes contained, on the average, […]. If this content exceeded the specified 3×10^8 blood platelets in 1 liter, this sample was diluted to the necessary concentration with plasma deprived of thrombocytes, which was obtained by centrifuging blood at 650 g during 10 minutes.
The measurements of the optical density of the samples were made on two-channel aggregometer of the “Chronolog” Company (USA). A flask containing 490 mkl of plasma rich with thrombocytes was placed in a device, into which a magnetic agitator covered with Teflon was lowered. The index of maximum amplitude of aggregation (MA) in percent of a fall of the plasma optical density under effect of the aggregation inductor was recorded. The control index MA of plasma was compared with the MA of plasma incubated for 3 minutes with different concentrations of the compounds: from 10^−3 to 10^−7 in vitro experiments or with plasma obtained 15, 30, 60 and 120 minutes after intravenous administration of different doses of the compounds in vivo experiments.
The process of aggregation of thrombocytes was recorded with the help of a computer; on the monitor screen the there were depicted curves reflecting changes of the optical density of the plasma enriched which was taken as a standard 100% compared to the optical density of the non-thrombocyte plasma taken for 0% content of thrombocytes.
The antiaggregative capability of compounds 2, 15, 21, 37, according to the invention was tested in experiments in vivo. Introduced to the test animals intravenously were an aggregation inductor ADP at a concentration of 10^−5 M was and then the compounds according to the invention. The doses of the compounds were in a range from 15 to 60 mg/kg.
For leveling the different effects of the compounds in different days due the ambient temperature, humidity and other parameters, 2 animals of each series were taken for experiments every day. Under “series” there is understood a group of 6 animals used for studying one of the doses of the compounds.
The blood for obtaining plasma enriched with thrombocytes was taken from marginal vein of the rabbit ear: in the control group—directly before introducing the tested compounds; in investigated groups—15 minutes after introducing these compounds and then after 30, 60, 120 minutes and so on up to the moment when the effect of suppression of aggregation disappeared.
The quantity of thrombocytes was counted before the experiment and at the end thereof in each plasma sample.

[2] = tested on: plasma hemostasis; assay: Partial activated thromboplastin time (PATT) after intravenous administration; format: in vivo, rabbit; details: for effect on the PATT (overall): doses 15.0, 30.0, 60.0 mg/kg
Method: The investigations were performed on 72 rabbits of the “Chinchilla” breed with a mass of 2.5±0.3 kg, who were administered which solutions of compounds 2, 15, 21, 37 in doses of 15, 30 and 60 mg/kg intravenously. The experiments included the thrombin-test (series No. 7300) and the coagulability-test (series No. 5000) purchased from the scientific-and-production association (SPA) “Renam”, thromboplastin (series No. 240600) and calcium chloride purchased from the SPA “MedioLab”
The static parameters of the blood and plasma coagulation (partial activated thromboplastin time, thrombin time, maximum coagulation activity (test for auto coagulation) were determined using the Behnk Electronic coagulometer (Germany). The operating principle of this instrument is based on the fact that the formed blood clot breaks the contacts of the pulse counter in the flask-pin circuit, said pin permanently oscillating in a vertical plane. The moment of formation of the clot is registered by stopping the stop watch hand.
The measurements were effected at a constant temperature of 37° C. maintained by a temperature control unit.
Compounds 2, 15, 21, 37 according to the invention at a concentration of 15, 30 and 60 mg/kg were introduced to the above experimental animals intravenously, and their blood samples were taken off 15, 30, 60 and 120 minutes after the administration.
The blood plasma samples deprived of thrombocytes obtained as described above in an amount of 0.1 ml were put in a coagulometer flask and heated for 1 minute at 37° C., then 0.1 ml of 0.277% solution of calcium chloride was added and the blood clotting time was registered. The coagulation time T in seconds of the control plasma and plasma obtained after intravenous administration after 15, 30, 60 and 120 minutes were compared.

| SMILES | MA, %, After 15 minutes ([1]; dose 15.0 mg/kg intravenously) [%] | MA, %, After 30 minutes ([1]; dose 15.0 mg/kg intravenously) [%] | MA, %, After 60 minutes ([1]; dose 15.0 mg/kg intravenously) [%] | MA, %, After 120 minutes ([1]; dose 15.0 mg/kg intravenously) [%] | MA, %, After 15 minutes ([1]; dose 30.0 mg/kg intravenously) [%] | MA, %, After 30 minutes ([1]; dose 30.0 mg/kg intravenously) [%] | MA, %, After 60 minutes ([1]; dose 30.0 mg/kg intravenously) [%] | MA, %, After 120 minutes ([1]; dose 30.0 mg/kg intravenously) [%] | MA, %, After 15 minutes ([1]; dose 60.0 mg/kg intravenously) [%] | MA, %, After 30 minutes ([1]; dose 60.0 mg/kg intravenously) [%] | MA, %, After 60 minutes ([1]; dose 60.0 mg/kg intravenously) [%] | MA, %, After 120 minutes ([1]; dose 60.0 mg/kg intravenously) [%] | T, s after 15 minutes (PATT) ([2]; dose 15.0 mg/kg intravenously) [s] | T, s after 30 minutes (PATT) ([2]; dose 15.0 mg/kg intravenously) [s] | T, s after 60 minutes (PATT) ([2]; dose 15.0 mg/kg intravenously) [s] | T, s after 120 minutes (PATT) ([2]; dose 15.0 mg/kg intravenously) [s] | T, s after 15 minutes (PATT) ([2]; dose 30.0 mg/kg intravenously) [s] | T, s after 30 minutes (PATT) ([2]; dose 30.0 mg/kg intravenously) [s] | T, s after 60 minutes (PATT) ([2]; dose 30.0 mg/kg intravenously) [s] | T, s after 120 minutes (PATT) ([2]; dose 30.0 mg/kg intravenously) [s] | also measured |
| --- | --- | --- | --- | --- | --- | --- | --- | --- | --- | --- | --- | --- | --- | --- | --- | --- | --- | --- | --- | --- | --- |
| Nc1ccnc2c(=O)n([C@@H]3O[C@H](CO)[C@@H](O)[C@H]3O)[nH]c(=O)c12 [Compound 2, 4-amino-7-(β-D-ribofuranosile)pyrido[2,3-d]-6H-pyridazine-5,8-dione] | 44.2 ± 2.0 | 42.2 ± 1.6 | 46.9 ± 1.7 | 49.2 ± 2.0 | 45.3 ± 2.0 | 43.7 ± 1.7 | 40.1 ± 2.2 | 59.7 ± 2.2 | 45.2 ± 1.2 | 43.6 ± 2.0 | 47.8 ± 1.5 | 48.0 ± 1.2 | 37.0 ± 0.1 | 37.0 ± 0.2 | 36.9 ± 0.1 | 37.0 ± 0.3 | 32.7 ± 0.5 | 32.0 ± 0.1 | 32.2 ± 0.1 | 32.1 ± 0.2 | T, s after 15 minutes (PATT) ([2]; dose 60.0 mg/kg intravenously): 32.3 ± 0.2 s; T, s after 30 minutes (PATT) ([2]; dose 60.0 mg/kg intravenously): 32.4 ± 0.1 s; T, s after 60 minutes (PATT) ([2]; dose 60.0 mg/kg intravenously): 32.3 ± 0.1 s; T, s after 120 minutes (PATT) ([2]; dose 60.0 mg/kg intravenously): 32.4 ± 0.1 s; effect on the PATT (overall) [2]: do not affect the PATT |
| Nc1cccc2c(=O)[nH][nH]c(=O)c12.[Na] [Compound 15, sodium salt of 5-amino-benzo[d]-3H-pyridazine-1,4-dione] | 42.8 ± 1.8 | 41.8 ± 1.5 | 45.6 ± 1.5 | 48.3 ± 2.3 | 43.2 ± 2.2 | 41.8 ± 1.9 | 37.8 ± 1.8 | 58.1 ± 1.7 | 43.1 ± 1.5 | 41.3 ± 1.5 | 44.7 ± 0.8 | 47.2 ± 1.6 | 37.0 ± 0.1 | 37.0 ± 0.2 | 36.9 ± 0.1 | 37.0 ± 0.3 | 32.9 ± 0.8 | 32.1 ± 0.1 | 32.0 ± 0.2 | 32.0 ± 0.1 | T, s after 15 minutes (PATT) ([2]; dose 60.0 mg/kg intravenously): 32.2 ± 0.1 s; T, s after 30 minutes (PATT) ([2]; dose 60.0 mg/kg intravenously): 32.2 ± 0.1 s; T, s after 60 minutes (PATT) ([2]; dose 60.0 mg/kg intravenously): 32.1 ± 0.2 s; T, s after 120 minutes (PATT) ([2]; dose 60.0 mg/kg intravenously): 32.2 ± 0.1 s; effect on the PATT (overall) [2]: do not affect the PATT |
| Nc1cnc2c(=O)n([C@@H]3O[C@H](CO)[C@@H](O)[C@H]3O)[nH]c(=O)c2n1.[Na] [Compound 21, sodium salt of 3-amino-7-(β-D-ribofuranosile)pyrazine[2,3-d]-6H-pyridazine-5,8-dione] | 43.5 ± 1.7 | 43.3 ± 1.7 | 46.7 ± 1.5 | 49.1 ± 1.7 | 46.7 ± 1.9 | 45.4 ± 1.8 | 45.0 ± 1.9 | 60.3 ± 2.1 | 45.1 ± 0.9 | 43.2 ± 2.0 | 47.3 ± 1.6 | 48.3 ± 1.5 | 37.1 ± 0.1 | 37.2 ± 0.1 | 36.9 ± 0.1 | 37.0 ± 0.2 | 32.8 ± 0.4 | 32.0 ± 0.1 | 32.2 ± 0.1 | 32.1 ± 0.1 | T, s after 15 minutes (PATT) ([2]; dose 60.0 mg/kg intravenously): 32.0 ± 0.4 s; T, s after 30 minutes (PATT) ([2]; dose 60.0 mg/kg intravenously): 32.1 ± 0.2 s; T, s after 60 minutes (PATT) ([2]; dose 60.0 mg/kg intravenously): 32.0 ± 0.1 s; T, s after 120 minutes (PATT) ([2]; dose 60.0 mg/kg intravenously): 32.3 ± 0.2 s; effect on the PATT (overall) [2]: do not affect the PATT |
| O=c1[nH][nH]c(=O)c2c(Br)ncnc12.[K] [Compound 37, potassium salt of 4-bromine-pyrimido[4,5-D]-6H-pyridazine-5,8-dione] | 42.9 ± 1.6 | 41.9 ± 1.6 | 45.9 ± 1.6 | 48.7 ± 2.1 | 43.5 ± 2.0 | 42.0 ± 1.4 | 41.6 ± 1.4 | 58.4 ± 1.7 | 43.4 ± 1.8 | 42.4 ± 0.7 | 46.2 ± 2.0 | 47.3 ± 1.7 | 37.0 ± 0.2 | 37.1 ± 0.1 | 37.0 ± 0.2 | 36.9 ± 0.1 | 33.1 ± 0.1 | 33.3 ± 0.1 | 33.3 ± 0.2 | 33.0 ± 0.4 | T, s after 15 minutes (PATT) ([2]; dose 60.0 mg/kg intravenously): 32.5 ± 0.1 s; T, s after 30 minutes (PATT) ([2]; dose 60.0 mg/kg intravenously): 32.3 ± 0.2 s; T, s after 60 minutes (PATT) ([2]; dose 60.0 mg/kg intravenously): 32.4 ± 0.1 s; T, s after 120 minutes (PATT) ([2]; dose 60.0 mg/kg intravenously): 32.6 ± 0.3 s; effect on the PATT (overall) [2]: do not affect the PATT |
